# pIC50: −log10 of the molar value. Where two headings read alike, the source gives them in different places.
# What was measured:
# human TLR8 = biological target: T1, human TLR8 (Homo sapiens, UniProt Q9NR97); assay: Inhibition of human TLR8 in human monocytes (TNF-alpha / IL-1 beta ELISA); assay type: cell-based; conditions: human monocytes, agonist ORN8L 100 μg/mL, 24 hours
# T1 construct: endogenous in cells; host or cells: primary human monocytes (CD14 microbeads) from buffy coats of healthy donors
# T1 sequence (Q9NR97 27-1041): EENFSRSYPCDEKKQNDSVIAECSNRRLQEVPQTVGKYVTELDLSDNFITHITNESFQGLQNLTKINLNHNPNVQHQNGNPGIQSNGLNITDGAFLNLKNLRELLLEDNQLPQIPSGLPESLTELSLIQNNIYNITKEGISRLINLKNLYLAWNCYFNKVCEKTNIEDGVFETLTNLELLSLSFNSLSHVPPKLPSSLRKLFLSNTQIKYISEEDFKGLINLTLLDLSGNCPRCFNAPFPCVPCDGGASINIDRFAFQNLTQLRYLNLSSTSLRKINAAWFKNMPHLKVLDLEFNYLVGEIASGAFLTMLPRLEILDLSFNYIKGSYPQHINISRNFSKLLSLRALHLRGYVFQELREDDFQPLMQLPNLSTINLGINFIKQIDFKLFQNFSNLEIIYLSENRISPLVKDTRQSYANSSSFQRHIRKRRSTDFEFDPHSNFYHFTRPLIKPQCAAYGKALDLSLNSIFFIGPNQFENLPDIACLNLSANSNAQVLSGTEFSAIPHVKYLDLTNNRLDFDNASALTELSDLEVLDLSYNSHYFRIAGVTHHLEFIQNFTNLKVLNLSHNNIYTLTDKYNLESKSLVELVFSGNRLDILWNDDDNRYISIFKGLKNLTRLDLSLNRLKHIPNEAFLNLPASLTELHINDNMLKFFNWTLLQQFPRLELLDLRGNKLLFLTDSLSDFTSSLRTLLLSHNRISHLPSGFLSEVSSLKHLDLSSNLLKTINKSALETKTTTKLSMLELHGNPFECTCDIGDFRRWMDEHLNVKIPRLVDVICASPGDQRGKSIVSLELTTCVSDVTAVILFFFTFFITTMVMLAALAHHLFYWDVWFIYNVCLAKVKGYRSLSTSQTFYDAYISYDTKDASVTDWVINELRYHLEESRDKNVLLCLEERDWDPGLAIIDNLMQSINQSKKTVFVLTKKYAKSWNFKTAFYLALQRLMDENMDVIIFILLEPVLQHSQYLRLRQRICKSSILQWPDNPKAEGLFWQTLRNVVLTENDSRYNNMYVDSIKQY
# Description: Example B2—Inhibition of Human TLR8 in Human Monocytes
# When placed in cell culture, engagement of TLR8 with an agonist leads to expression and release of cytokines into the media.
# Buffy coats from anonymized, healthy human donors. CD14 microbeads (Milteny Cat. No. 130-050-201). TLR8 agonist, (5′-M2UGCUGCUUGUG-/glycerol/-GUGUUCGUCGUM2-5′ with M2=C6-linker, ORN8L, RNA oligonucleotide (Chem Genes Corp.). Human TNF-alpha ELISA kit (Mabtech Cat. No. 3510-1H-20). Human interleukin (IL)-1 beta ELISA kit (Mabtech Cat. No. 3415-1H-20).
# Following isolation of monocytes from buffy coats, human monocytes were plated into 96 well plates at approximately 200,000 cells per well. Test compounds were serially diluted and added to the plates. Immediately after adding test compounds, the TLR8 agonist (ORN8L, RNA oligonucleotide) was added to a final concentration of 100 μg/mL. Cells were incubated for 24 hours at 37° C. A portion of the media supernatant was analyzed for the presence of TNF-alpha and/or IL-1 beta using ELISA kits. The amount of TNF-alpha or IL-1 beta produced is a reflection of the amount of TLR8-dependent receptor activity. The IC50 values (the concentration at which 50% of the TLR8-dependent receptor activity is reduced) were calculated based upon the TLR8-dependent receptor activity over a range of different test compound concentrations.
# human TLR9 = biological target: T2, human TLR9 (Homo sapiens, UniProt Q9NR96); assay: Inhibition of human TLR9 in human B cells (IL-6 ELISA); assay type: cell-based; conditions: for pIC50: human B cells, agonist 1018 ISS 1 μM, IL-6 readout, 48 hours, range about 0.01 to 10 μM, read-out: Human TLR9 IC50; for inhibits TLR9-dependent responses (in words): summary statement of the description
# T2 construct: endogenous in cells; host or cells: primary human B cells (CD19 microbeads) from buffy coats of healthy donors
# T2 sequence (Q9NR96 26-1032): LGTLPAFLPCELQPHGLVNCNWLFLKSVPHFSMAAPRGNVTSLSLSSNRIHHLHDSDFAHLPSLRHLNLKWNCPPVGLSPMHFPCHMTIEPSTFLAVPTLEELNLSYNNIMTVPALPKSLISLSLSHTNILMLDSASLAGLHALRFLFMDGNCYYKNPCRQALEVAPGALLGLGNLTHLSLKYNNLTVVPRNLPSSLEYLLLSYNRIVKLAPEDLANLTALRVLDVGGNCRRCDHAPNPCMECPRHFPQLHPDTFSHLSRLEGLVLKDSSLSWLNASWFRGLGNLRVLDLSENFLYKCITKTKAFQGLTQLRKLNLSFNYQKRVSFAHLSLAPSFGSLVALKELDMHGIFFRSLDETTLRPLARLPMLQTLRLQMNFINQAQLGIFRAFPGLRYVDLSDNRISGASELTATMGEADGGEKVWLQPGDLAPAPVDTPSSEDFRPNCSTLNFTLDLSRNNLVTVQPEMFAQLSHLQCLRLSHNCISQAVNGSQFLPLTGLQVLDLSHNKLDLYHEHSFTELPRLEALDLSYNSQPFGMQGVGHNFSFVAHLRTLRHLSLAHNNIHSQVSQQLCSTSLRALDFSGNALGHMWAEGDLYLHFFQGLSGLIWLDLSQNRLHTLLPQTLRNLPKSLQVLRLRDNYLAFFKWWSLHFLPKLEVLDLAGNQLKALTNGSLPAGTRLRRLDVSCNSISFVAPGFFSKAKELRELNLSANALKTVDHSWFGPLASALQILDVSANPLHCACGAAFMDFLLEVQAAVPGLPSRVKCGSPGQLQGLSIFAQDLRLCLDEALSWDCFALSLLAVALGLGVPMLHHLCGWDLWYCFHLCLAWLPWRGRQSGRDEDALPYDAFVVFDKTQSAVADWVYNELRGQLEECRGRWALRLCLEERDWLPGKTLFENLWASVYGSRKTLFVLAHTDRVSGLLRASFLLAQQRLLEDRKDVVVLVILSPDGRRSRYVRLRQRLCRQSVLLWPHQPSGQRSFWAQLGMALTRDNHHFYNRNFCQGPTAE
# Description: Example B3—Inhibition of Human TLR9 in Human B Cells
# When placed in cell culture, engagement of TLR9 with an agonist leads to expression and release of cytokines into the media.
# Buffy coats from anonymized, healthy human donors. CD19 microbeads (Miltenyi Cat. No. 130-050-301). TLR9 agonist, 1018 ISS, CpG-containing DNA oligonucleotide. Human interleukin (IL)-6 ELISA kit (Mabtech Cat. No. 3460-1H-20).
# Following isolation of […] from buffy coats, human B cells were plated into 96 well plates at approximately 300,000 cells per well. Test compounds were serially diluted and added to the plates. Test compounds were typically assayed using a concentration range from about 0.01 μM to about 10 μM. Certain test compounds were further assayed in an expanded dilution series using a compound concentration range from about 0.001 μM to about 30 μM. Immediately after adding test compounds, the TLR9 agonist (1018 ISS, CpG-containing DNA oligonucleotide) was added to a final concentration of 1 μM. Cells were incubated for 48 hours at 37° C. A portion of the media supernatant was analyzed for the presence of IL-6 using ELISA kits. The amount of IL-6 produced is a reflection of the amount of TLR9-dependent receptor activity. The IC50 values (the concentration at which 50% of the TLR9-dependent receptor activity is reduced) were calculated based upon the TLR9-dependent receptor activity over a range of different test compound concentrations.
# [1] = IL-1 beta readout, read-out: Human TLR8 IC50 IL-1b
# [2] = TNF-alpha readout, read-out: Human TLR8 IC50 TNF-a
Structure (SMILES),pIC50 (human TLR8; [1]),pIC50 (human TLR8; [2]),pIC50 (human TLR9),inhibits TLR9-dependent responses (in words) (human TLR9)
"Cc1ccc(-n2nc3c(N4CCC(C(=O)N[C@H]5C[C@H](N(C)C)C5)CC4)nnc(C)c3c2C)cc1 [Compound No. 12a, 1-(3,4-dimethyl-2-(p-tolyl)-2H-pyrazolo[3,4-d]pyridazin-7-yl)-N-((1r,3r)-3-(dimethylamino)cyclobutyl)piperidine-4-carboxamide]",< 5.00,< 5.00,7.15,–
"Cc1ccc(-n2nc3c(N4CCC(C(=O)NCCCN5CCOCC5)CC4)nnc(C)c3c2C)cc1 [Compound No. 19x, 1-(3,4-dimethyl-2-(p-tolyl)-2H-pyrazolo[3,4-d]pyridazin-7-yl)-N-(3-morpholinopropyl)piperidine-4-carboxamide]",6.13,6.13,7.74,inhibit
"Cc1ccc(-n2cc3cnnc(N4CCC(C(=O)NCCCN(C)C)CC4)c3n2)cc1 [Compound No. 29, N-(3-(dimethylamino)propyl)-1-(2-(p-tolyl)-2H-pyrazolo[3,4-d]pyridazin-7-yl)piperidine-4-carboxamide]",5.79,< 5.00,8.15,inhibit
"Cc1ccc(-c2nc3c(N4CCC(C(=O)NCCCN(C)C)CC4)cccc3n2C)cc1 [Compound No. 53, N-(3-(dimethylamino)propyl)-1-(1-methyl-2-(p-tolyl)-1H-benzo[d]imidazol-4-yl)piperidine-4-carboxamide]",–,≤ 4.70,5.65,–
"Cc1ccc(-n2nc3c(N4CCC(C(=O)NCCNC(C)C)CC4)nnc(C)c3c2C)cc1 [compound 8, 1-(3,4-dimethyl-2-(p-tolyl)-2H-pyrazolo[3,4-d]pyridazin-7-yl)-N-(2-(isopropylamino)ethyl)piperidine-4-carboxamide]",< 5.00,< 5.00,6.51,–
"Cc1ccc(-n2nc3c(N4CCCC(C(=O)NCCNC(C)C)C4)nnc(C)c3c2C)cc1 (stereo not shown) [compound 16, 1-(3,4-dimethyl-2-(p-tolyl)-2H-pyrazolo[3,4-d]pyridazin-7-yl)-N-(2-(isopropylamino)ethyl)piperidine-3-carboxamide]",–,≤ 4.70,7.34,–

# Continued, values first:
pIC50 (human TLR8; [1]),pIC50 (human TLR8; [2]),pIC50 (human TLR9),inhibits TLR9-dependent responses (in words) (human TLR9),Structure (SMILES)
< 5.00,< 5.00,8.40,inhibit,"Cc1ccc(-n2nc3c(N4CCC(C(=O)NCCN(C)C)CC4)nnc(C)c3c2C)cc1 [Compound No. 21x, 1-(3,4-dimethyl-2-(p-tolyl)-2H-pyrazolo[3,4-d]pyridazin-7-yl)-N-(2-(dimethylamino)ethyl)piperidine-4-carboxamide]"
< 5.00,< 5.00,7.51,inhibit,"Cc1ccc(-n2nc3c(N4CCC(CC(=O)NCCCN(C)C)CC4)nnc(C)c3c2C)cc1 [Compound No. 22, 2-(1-(3,4-dimethyl-2-(p-tolyl)-2H-pyrazolo[3,4-d]pyridazin-7-yl)piperidin-4-yl)-N-(3-(dimethylamino)propyl)acetamide]"
–,4.93,6.93,–,"Cc1ccc(-n2nc3c(N4CCN(C(=O)NCCCN(C)C)CC4)nnc(C)c3c2C)cc1 [Compound No. 76, 4-(3,4-dimethyl-2-(p-tolyl)-2H-pyrazolo[3,4-d]pyridazin-7-yl)-N-(3-(dimethylamino)propyl)piperazine-1-carboxamide]"
< 5.00,< 5.00,6.53,–,"Cc1ccc(-n2nc3c(N4CCC(C(=O)NCCCN(C)C)C4)nnc(C)c3c2C)cc1 (stereo not shown) [compound 13, 1-(3,4-dimethyl-2-(p-tolyl)-2H-pyrazolo[3,4-d]pyridazin-7-yl)-N-(3-(dimethylamino)propyl)pyrrolidine-3-carboxamide]"
< 5.00,< 5.00,6.60,–,"Cc1ccc(-n2nc3c(N4CC(C(=O)NCCCN(C)C)C4)nnc(C)c3c2C)cc1 [compound 15, 1-(3,4-dimethyl-2-(p-tolyl)-2H-pyrazolo[3,4-d]pyridazin-7-yl)-N-(3-(dimethylamino)propyl)azetidine-3-carboxamide]"

# Source: patent US11370794B2, “Toll-like receptor antagonist compounds and methods of use” (Dynavax Technologies Corporation, priority 2016, dated 2022)
